Source: ChEMBL document CHEMBL3886169, “Oxazine derivatives and their use in the treatment of disease” (2015)

Tests used:
Beta-secretase 1 = Beta-secretase 1 (Homo sapiens, UniProt P56817); experiment: Inhibition Assay: Recombinant BACE-1 (extracellular domain, expressed in baculovirus and purified using standard methods) at 0.1 to 1 nM concentrations is incubated with the test compound at various concentrations for 1 hour at room temperature in 100 mM acetate buffer, pH 4.5, containing 0.1% CHAPS. Activity was measured using a final concentration of 3 μM of the fluorescence-quenched substrate Q-C(HSO3)-Ile-Asp-Leu-Ala-Val-Leu-Asp-HN-CH2-CH2-Mca, where Q=2-nitro-5-amino benzoic acid and Mca=7-methoxy-4-coumarinyl acetic acid. Catalytic turnover was monitored in a Spectramax Gemini fluorescence plate reader (Molecular Devices) in black 96-well microplates using excitation/emission wavelength of 325 nm and 400 nm, respectively. Fluorescence increase was followed for 15 min, in 1 minute's intervals. The fluorescence/time slopes were calculated from duplicate wells and from wells without inhibitor and the IC50 values were calculated using a logistic 4-parameter model.
Chain of Beta-secretase 1 (P56817 whole entry, the tested form may be a part): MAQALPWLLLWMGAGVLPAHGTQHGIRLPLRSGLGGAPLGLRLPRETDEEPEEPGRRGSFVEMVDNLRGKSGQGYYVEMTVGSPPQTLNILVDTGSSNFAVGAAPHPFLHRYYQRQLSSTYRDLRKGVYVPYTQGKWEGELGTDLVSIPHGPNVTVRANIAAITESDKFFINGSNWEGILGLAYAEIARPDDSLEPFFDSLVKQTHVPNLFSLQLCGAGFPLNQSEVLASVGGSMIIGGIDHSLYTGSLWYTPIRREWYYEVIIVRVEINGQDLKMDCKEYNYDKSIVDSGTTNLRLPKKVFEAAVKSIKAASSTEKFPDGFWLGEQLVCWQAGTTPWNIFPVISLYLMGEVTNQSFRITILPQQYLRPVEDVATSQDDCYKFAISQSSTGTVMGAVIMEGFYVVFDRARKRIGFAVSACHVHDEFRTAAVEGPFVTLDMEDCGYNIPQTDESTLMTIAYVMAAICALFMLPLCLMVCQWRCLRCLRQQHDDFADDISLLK

Beta-secretase 2 = molecular target: T1, Beta-secretase 2 (Homo sapiens, UniProt Q9Y5Z0); experiment: Fluorescence increase was followed for 15 min, in 1 minute's intervals. The fluorescence/time slopes were calculated from duplicate wells and from wells without inhibitor and the IC50 values were calculated using a logistic 4-parameter model.
T1 sequence (Q9Y5Z0 whole entry): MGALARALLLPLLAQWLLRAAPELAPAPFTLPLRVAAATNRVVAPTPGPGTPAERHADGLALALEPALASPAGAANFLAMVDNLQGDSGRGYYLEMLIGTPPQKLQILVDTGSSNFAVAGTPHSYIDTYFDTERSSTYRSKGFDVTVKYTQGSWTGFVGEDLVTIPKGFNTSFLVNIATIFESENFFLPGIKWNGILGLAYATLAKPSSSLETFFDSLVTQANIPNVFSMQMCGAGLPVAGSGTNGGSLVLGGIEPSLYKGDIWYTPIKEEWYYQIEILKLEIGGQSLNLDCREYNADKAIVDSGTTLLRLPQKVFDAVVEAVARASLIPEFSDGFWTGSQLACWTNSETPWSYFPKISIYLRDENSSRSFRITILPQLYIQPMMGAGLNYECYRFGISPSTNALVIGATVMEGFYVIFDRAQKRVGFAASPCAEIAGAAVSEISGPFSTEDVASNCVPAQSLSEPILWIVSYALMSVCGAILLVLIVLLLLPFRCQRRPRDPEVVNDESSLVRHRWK

SMILES: COc1cnc(C(=O)Nc2ccc(F)c([C@@]3(C)N=C(N)OCC3(F)F)n2)c(C)c1
- IC50 (Beta-secretase 1): 270 nM
- IC50 (Beta-secretase 2): 93 nM
